Values quoted from earlier work as cited in patent US4873075A, “Polyiodinated triglyceride analogs as radiologic agents” (The University of Michigan, priority 1985, dated 1989).

Tested on: liver
Conditions: background statement

In the case of “tetraiodotetrachlorofluorescein [^131 I-Rose Bengal]”, the “hepatic to intestinal output” value is given as “slow rate of hepatic to intestinal output”.
